Results from PubChem BioAssay (NCI).
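Values below derive from 48-hour exposures of cells grown in 96-well plates, with endpoints linearly interpolated between the two concentrations bracketing the appropriate inhibition level. At the TGI there is no net growth.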

Assays:
Assay in all cases: NCI-60 cell line screen, 48 h
786-0 renal = system: 786-0 renal
A498 renal = system: A498 renal
A549 NSCLC = system: A549 NSCLC
ACHN renal = system: ACHN renal
BT-549 breast = system: BT-549 breast
CAKI-1 renal = system: CAKI-1 renal
CCRF-CEM leukemia = system: CCRF-CEM leukemia
COLO 205 colon = system: COLO 205 colon
DU-145 prostate = system: DU-145 prostate
EKVX NSCLC = system: EKVX NSCLC
HCC-2998 colon = system: HCC-2998 colon
HCT-116 colon = system: HCT-116 colon
HCT-15 colon = system: HCT-15 colon
HL-60(TB) leukemia = system: HL-60(TB) leukemia
HOP-62 NSCLC = system: HOP-62 NSCLC
HOP-92 NSCLC = system: HOP-92 NSCLC
HS 578T breast = system: HS 578T breast
HT29 colon = system: HT29 colon
IGROV1 ovarian = system: IGROV1 ovarian
K-562 leukemia = system: K-562 leukemia
KM12 colon = system: KM12 colon
LOX IMVI melanoma = system: LOX IMVI melanoma
M14 melanoma = system: M14 melanoma
MALME-3M melanoma = system: MALME-3M melanoma
MCF7 breast = system: MCF7 breast
MDA-MB-231 breast = system: MDA-MB-231 breast
MDA-MB-435 = system: MDA-MB-435
MDA-N = system: MDA-N
MOLT-4 leukemia = system: MOLT-4 leukemia
NCI-H226 lung = system: NCI-H226 lung
NCI-H23 lung = system: NCI-H23 lung
NCI-H460 lung = system: NCI-H460 lung
NCI-H522 lung = system: NCI-H522 lung
NCI/ADR-RES ovarian = system: NCI/ADR-RES ovarian
OVCAR-3 ovarian = system: OVCAR-3 ovarian
OVCAR-4 ovarian = system: OVCAR-4 ovarian
OVCAR-5 ovarian = system: OVCAR-5 ovarian
OVCAR-8 ovarian = system: OVCAR-8 ovarian
PC-3 prostate = system: PC-3 prostate
RPMI-8226 leukemia = system: RPMI-8226 leukemia
RXF 393 renal = system: RXF 393 renal
SF-268 CNS = system: SF-268 CNS
SF-295 CNS = system: SF-295 CNS
SF-539 CNS = system: SF-539 CNS
SK-MEL-2 melanoma = system: SK-MEL-2 melanoma
SK-MEL-28 melanoma = system: SK-MEL-28 melanoma
SK-MEL-5 melanoma = system: SK-MEL-5 melanoma
SK-OV-3 ovarian = system: SK-OV-3 ovarian
SN12C renal = system: SN12C renal
SNB-19 CNS = system: SNB-19 CNS
SNB-75 CNS = system: SNB-75 CNS
SR leukemia = system: SR leukemia
SW-620 colon = system: SW-620 colon
T-47D breast = system: T-47D breast
TK-10 renal = system: TK-10 renal
U251 CNS = system: U251 CNS
UACC-257 melanoma = system: UACC-257 melanoma
UACC-62 melanoma = system: UACC-62 melanoma
UO-31 renal = system: UO-31 renal

## O=c1ssc2c1Nc1c(ssc1=O)S2
786-0 renal
  TGI: 14.5 µM
A498 renal
  TGI: 24.7 µM
A549 NSCLC
  TGI: 41 µM
ACHN renal
  TGI: 30.2 µM
BT-549 breast
  TGI: 52.5 µM
CAKI-1 renal
  TGI: 33.3 µM
CCRF-CEM leukemia
  TGI: 6.8 µM
COLO 205 colon
  TGI: 36.4 µM
DU-145 prostate
  TGI: 26.2 µM
EKVX NSCLC
  TGI: 30 µM
HCC-2998 colon
  TGI: 29.4 µM
HCT-116 colon
  TGI: 31.2 µM
HCT-15 colon
  TGI: 41.3 µM
HL-60(TB) leukemia
  TGI: 15.5 µM
HOP-62 NSCLC
  TGI: 36.4 µM
HOP-92 NSCLC
  TGI: 28.7 µM
HS 578T breast
  TGI: > 100 µM
HT29 colon
  TGI: 73.8 µM
IGROV1 ovarian
  TGI: 26.4 µM
K-562 leukemia
  TGI: 25.2 µM
KM12 colon
  TGI: 28.6 µM
LOX IMVI melanoma
  TGI: 24.3 µM
M14 melanoma
  TGI: 27.2 µM
MALME-3M melanoma
  TGI: 22.4 µM
MCF7 breast
  TGI: 39.2 µM
MDA-MB-231 breast
  TGI: 57.3 µM
MDA-MB-435
  TGI: 33.5 µM
MDA-N
  TGI: 31.9 µM
MOLT-4 leukemia
  TGI: 28.4 µM
NCI-H226 lung
  TGI: 46.5 µM
NCI-H23 lung
  TGI: 35.3 µM
NCI-H460 lung
  TGI: 36.4 µM
NCI-H522 lung
  TGI: 37.4 µM
NCI/ADR-RES ovarian
  TGI: 37.4 µM
OVCAR-3 ovarian
  TGI: 32.4 µM
OVCAR-4 ovarian
  TGI: 28.2 µM
OVCAR-5 ovarian
  TGI: 32.4 µM
OVCAR-8 ovarian
  TGI: 28.6 µM
PC-3 prostate
  TGI: 25.5 µM
RPMI-8226 leukemia
  TGI: 21.1 µM
RXF 393 renal
  TGI: 17.4 µM
SF-268 CNS
  TGI: 33.5 µM
SF-295 CNS
  TGI: 74.7 µM
SF-539 CNS
  TGI: 21.5 µM
SK-MEL-2 melanoma
  TGI: 32.1 µM
SK-MEL-28 melanoma
  TGI: 34.2 µM
SK-MEL-5 melanoma
  TGI: 29.4 µM
SK-OV-3 ovarian
  TGI: 36.3 µM
SN12C renal
  TGI: 28.1 µM
SNB-19 CNS
  TGI: 34.7 µM
SNB-75 CNS
  TGI: 30.2 µM
SR leukemia
  TGI: 5.49 µM
SW-620 colon
  TGI: 31.1 µM
T-47D breast
  TGI: 26.2 µM
TK-10 renal
  TGI: 29.5 µM
U251 CNS
  TGI: 33.3 µM
UACC-257 melanoma
  TGI: 28.3 µM
UACC-62 melanoma
  TGI: 27.3 µM
UO-31 renal
  TGI: 24.4 µM

## CN(C)c1ccc(C2SCC(=O)N2c2nc3cc4sc(N5C(=O)CSC5c5ccc(N(C)C)cc5)nc4cc3s2)cc1 (stereo not drawn)
786-0 renal
  TGI: > 100 µM
A498 renal
  TGI: > 100 µM
A549 NSCLC
  TGI: > 100 µM
ACHN renal
  TGI: > 100 µM
BT-549 breast
  TGI: > 100 µM
CAKI-1 renal
  TGI: > 100 µM
CCRF-CEM leukemia
  TGI: > 100 µM
COLO 205 colon
  TGI: > 100 µM
DU-145 prostate
  TGI: > 87.2 µM
EKVX NSCLC
  TGI: > 100 µM
HCC-2998 colon
  TGI: > 100 µM
HCT-116 colon
  TGI: > 100 µM
HCT-15 colon
  TGI: > 100 µM
HL-60(TB) leukemia
  TGI: > 100 µM
HOP-62 NSCLC
  TGI: > 100 µM
HOP-92 NSCLC
  TGI: > 100 µM
HS 578T breast
  TGI: > 100 µM
HT29 colon
  TGI: > 100 µM
IGROV1 ovarian
  TGI: > 100 µM
K-562 leukemia
  TGI: > 100 µM
KM12 colon
  TGI: > 100 µM
LOX IMVI melanoma
  TGI: > 100 µM
M14 melanoma
  TGI: > 100 µM
MALME-3M melanoma
  TGI: > 100 µM
MCF7 breast
  TGI: > 100 µM
MDA-MB-231 breast
  TGI: > 100 µM
MDA-MB-435
  TGI: > 100 µM
MDA-N
  TGI: > 100 µM
MOLT-4 leukemia
  TGI: > 100 µM
NCI-H226 lung
  TGI: 73.1 µM
NCI-H23 lung
  TGI: > 100 µM
NCI-H460 lung
  TGI: > 28.3 µM
NCI-H522 lung
  TGI: > 100 µM
NCI/ADR-RES ovarian
  TGI: > 76.3 µM
OVCAR-3 ovarian
  TGI: > 100 µM
OVCAR-4 ovarian
  TGI: > 100 µM
OVCAR-5 ovarian
  TGI: > 100 µM
OVCAR-8 ovarian
  TGI: > 100 µM
PC-3 prostate
  TGI: > 100 µM
RPMI-8226 leukemia
  TGI: > 100 µM
RXF 393 renal
  TGI: > 100 µM
SF-268 CNS
  TGI: > 100 µM
SF-295 CNS
  TGI: > 100 µM
SF-539 CNS
  TGI: > 100 µM
SK-MEL-2 melanoma
  TGI: > 100 µM
SK-MEL-28 melanoma
  TGI: > 100 µM
SK-MEL-5 melanoma
  TGI: > 100 µM
SK-OV-3 ovarian
  TGI: > 100 µM
SN12C renal
  TGI: > 100 µM
SNB-19 CNS
  TGI: > 100 µM
SNB-75 CNS
  TGI: > 100 µM
SR leukemia
  TGI: > 100 µM
SW-620 colon
  TGI: > 100 µM
T-47D breast
  TGI: > 100 µM
TK-10 renal
  TGI: > 100 µM
U251 CNS
  TGI: > 100 µM
UACC-257 melanoma
  TGI: > 70 µM
UACC-62 melanoma
  TGI: > 100 µM
UO-31 renal
  TGI: > 100 µM
